Molecular target: T1, GPR158 (Homo sapiens, UniProt Q5T848)
T1 sequence (Q5T848 24-1215): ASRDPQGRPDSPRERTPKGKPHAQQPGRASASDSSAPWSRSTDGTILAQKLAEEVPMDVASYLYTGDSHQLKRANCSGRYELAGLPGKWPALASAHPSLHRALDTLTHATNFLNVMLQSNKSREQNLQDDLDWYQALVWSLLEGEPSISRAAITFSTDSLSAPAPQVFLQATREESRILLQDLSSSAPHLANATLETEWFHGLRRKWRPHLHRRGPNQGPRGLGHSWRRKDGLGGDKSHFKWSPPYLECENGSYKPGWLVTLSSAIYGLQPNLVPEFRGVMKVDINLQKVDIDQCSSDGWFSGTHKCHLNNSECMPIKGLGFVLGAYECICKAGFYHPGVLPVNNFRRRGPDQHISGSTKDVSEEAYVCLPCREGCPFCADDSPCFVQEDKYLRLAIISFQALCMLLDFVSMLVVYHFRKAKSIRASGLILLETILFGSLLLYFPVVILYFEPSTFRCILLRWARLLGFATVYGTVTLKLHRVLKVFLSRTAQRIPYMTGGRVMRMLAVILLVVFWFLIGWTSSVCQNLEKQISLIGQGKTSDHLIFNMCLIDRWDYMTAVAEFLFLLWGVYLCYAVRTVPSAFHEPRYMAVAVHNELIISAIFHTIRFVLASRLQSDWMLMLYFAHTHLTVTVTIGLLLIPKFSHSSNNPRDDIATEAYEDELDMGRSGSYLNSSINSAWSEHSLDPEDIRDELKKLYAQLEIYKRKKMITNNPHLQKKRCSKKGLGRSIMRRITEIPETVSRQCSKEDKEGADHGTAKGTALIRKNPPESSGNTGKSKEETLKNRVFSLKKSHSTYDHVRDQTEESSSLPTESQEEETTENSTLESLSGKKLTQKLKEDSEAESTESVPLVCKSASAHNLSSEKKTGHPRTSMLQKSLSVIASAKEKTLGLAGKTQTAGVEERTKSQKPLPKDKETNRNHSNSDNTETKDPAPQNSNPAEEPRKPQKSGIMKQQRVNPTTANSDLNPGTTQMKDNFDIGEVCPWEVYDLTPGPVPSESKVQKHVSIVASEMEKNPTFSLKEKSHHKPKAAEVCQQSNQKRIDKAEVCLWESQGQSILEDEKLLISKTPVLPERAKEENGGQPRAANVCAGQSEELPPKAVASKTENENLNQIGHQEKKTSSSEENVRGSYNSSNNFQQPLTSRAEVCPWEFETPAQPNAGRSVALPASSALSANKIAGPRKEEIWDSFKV
Assay: Whole cell radioligand binding assay
Parameters: expressed in transfected cells; host or cells: HEK293 (HEK293FT in the BRET methods)
Settings: HEK293 cells, across concentrations
Experimental: FIG. 7. Direct binding of glycine in whole cell radiolabeled assay a) Schematics of the radioligand binding assay. b) Quantification of ^3H-glycine binding to cells. Count Per minute (CPM) are measured and plotted. Data shown mean of 3 independent experiments error bars are s.e.m. values, n=3, *p=0.0403, ***p<0.001, ****p<0.0001 (two-way ANOVA) Columns with no fill (Control cells), columns with angled-line fill (GPR158 cells).
Next, the inventors performed radioligand binding assays examining binding of [^3H]-labeled glycine to HEK293 cells expressing GPR158 (FIG. 7A). […] The inventors have then isolated cellular membranes and conducted classical radioligand titration experiments (FIG. 9D). The inventors detected saturable [^3H]-glycine binding to membranes containing GPR158 is substantial excess over linear non-specific binding to membranes devoid of GPR158 (FIG. 9E). Scatchard analysis (FIG. 9F) estimated Kd of GPR158 for glycine to be ~3 μM. The inventors further performed binding competition experiments directly comparing the ability of glycine and taurine to displace [^3H]-labeled glycine bound to GPR158 (FIG. 8).
Whole cell binding was performed using cDNA of GPR158-venus or each GPR158-venus mutant or empty pcDNA3.1+ for ctrl cells. […] Finally radioactivity was measured using the liquid scintillation analyzer Tri-Carb 4910 TR.

NCC(=O)O [^3H-glycine, [^3H]-glycine]
binding to GPR158-expressing cells: significant binding
